Laboratory results as given in patent US8475848B2, “Cosmetic composition having anti-radical properties and corresponding application method” (Yves Saint Laurent Parfums, priority 2007, dated 2013).

What was measured:
[1] = tested on: irradiated skin explants; assay: Lipid peroxidation test on irradiated skin explants, extracts associated with an insoluble mineral substrate dispersed in carnation oil; type: cell-based; details: reference (positive control), 5 mg/cm^2 topical, UVA+B
Procedure: Study of the activity of extracts associated with an insoluble mineral substrate dispersed in carnation oil were carried out using a lipid peroxidation test on irradiated skin explants. This test, which was carried out by applying the products topically, meant that the effects of non-hydrosoluble extracts could be studied in vitro.
Upon receipt, the skin explants were cut and placed in culture.
The test products or the reference (positive control=BHA) were then applied to the surface of the explants in a quantity of 5 mg/cm^2 [milligrams/square centimeter] and the explants were placed in an incubator for 24 h [hours] at 37° C. in the presence of 95% air and 5% CO2.
After incubation and washing, the explants for each series were exposed to irradiation using ultraviolet A and B (UVA+B) radiation. Irradiation was carried out using a SOL500 Sun Simulator lamp with an H2 filter and the exposure conditions were as follows: • UVA+B filter: • UVA: power 11.5 mW/cm^2 [milliwatt/square centimeter] i.e. 678.6 mJ/cm^2/minute [millijoule/square centimeter/minute]; • UVB: power 0.78 mW/cm^2, i.e. 47.1 mJ/cm^2/minute; • Irradiation period: 21 minutes; • i.e. approximately 1 J/cm^2 of UVB and 14 J/cm^2 of UVA.
Three other untreated control explants were kept away from the light. […]
The epidermis was then extracted and the viability of the cells was evaluated using MTT reduction. […]

[2] = DPPH test on pure extracts (reduction of DPPH, optical density); type: biochemical; details: for % control (OD) / Activity (DPPH reduction): DPPH test
Text: (§1) The activity of the pure extracts was studied by means of two biochemical tests: one was based on the reduction of 2,2-diphenyl-1-picrylhydrazyl (DPPH) by the anti-oxidants, and the other was based on the measurement of hydrogen peroxide (H2O2) in the reaction media. H2O2 is trapped by a specific reagent, “AmplexRed”. 2,2-diphenyl-1-picrylhydrazyl (DPPH) is a stable radical compound that is reduced to 1,1-diphenyl-2-picrylhydrazine by anti-oxidants. This reduction is followed by a color change in the DPPH solution (optical density measurement).
(§2) The pure extracts as well as the anti-oxidant references (α-tocopherol and BHA: butylated hydroxyanisole for DPPH, BHA alone for AmplexRed) were dissolved in ethanol. Controls using ethanol alone were produced in order to verify the absence of interference of this solvent.
The products for this test were tested starting from a concentration of 1 mg/ml in a power of ten series. The alpha-tocopherol positive control was tested at a concentration of 0.1 μM [micromolar] and the BHA was tested at a concentration of 50 μM.

[3] = H2O2/AmplexRed test on pure extracts (fluorescence); type: biochemical
Text: as §1
AmplexRed is a compound which reacts in a stoichiometric manner with H2O2, producing a fluorescent red compound, resofurin, which can be measured by fluorescence. This test can detect small quantities of H2O2.
as §2
The products for this test were tested starting from a concentration of 1 μg/ml in a power of ten series. The BHA positive control was tested at concentrations of 50 μM and 500 μM.

COc1ccc(O)c(C(C)(C)C)c1 [BHA, butylated hydroxyanisole]
production of lipid peroxides after irradiation (in words) [1]: greatly reduced the production of lipid peroxides
% control (OD) ([2]; 50 μM): 74%
Activity (DPPH reduction) ([2]; 50 μM): +/− (25% reduction)
% control (fluorescence intensity) ([3]; 50 μM): 38%
Activity (reduction of free H2O2) ([3]; 50 μM): ++ (strong reduction more than 50%)
% control (fluorescence intensity) ([3]; 500 μM): 34%
Activity (reduction of free H2O2) ([3]; 500 μM): ++ (strong reduction more than 50%)

Cc1c(C)c2c(c(C)c1O)CC[C@@](C)(CCC[C@H](C)CCC[C@H](C)CCCC(C)C)O2 [Tocopherol, α-tocopherol]
% control (OD) ([2]; 0.1 μM): 9%
Activity (DPPH reduction) ([2]; 0.1 μM): ++ (large reduction more than 50%)
reduction of DPPH (in words) ([2]; reference, 0.1 μM): clearly reduced the DPPH
